# Measured values published in ChEMBL document CHEMBL1132099, “The design of potent and selective inhibitors of thrombin utilizing a piperazinedione template: part 2” (Bioorg Med Chem Lett, 1999).
# Assays:
# [1] = target: T1, Prothrombin (Homo sapiens, UniProt P00734); test: Inhibitory concentration required against thrombin was determined
# [2] = target: T2, Serine protease 1 (Homo sapiens, UniProt P07477); test: Inhibitory concentration required against trypsin was determined
# [3] = system: Trypsin; test: Compound was tested for percent inhibition against trypsin at 100 uM
# [4] = target: T2, Serine protease 1; test: Compound was tested for percent inhibition against trypsin at 100 uM
# [5] = target: T1, Prothrombin; test: Inhibition of thrombin
# T2 sequence (P07477 whole entry): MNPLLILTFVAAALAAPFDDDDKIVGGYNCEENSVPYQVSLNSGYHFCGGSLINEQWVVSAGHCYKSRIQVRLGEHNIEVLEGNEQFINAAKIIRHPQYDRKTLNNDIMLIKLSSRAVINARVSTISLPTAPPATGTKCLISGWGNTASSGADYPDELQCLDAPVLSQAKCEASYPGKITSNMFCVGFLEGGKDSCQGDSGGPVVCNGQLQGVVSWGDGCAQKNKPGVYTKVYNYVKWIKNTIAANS
structure (smiles),measurement,setting,value
N=C(N)N1CCCC(C[C@H](NC(=O)CN2C(=O)CN(CCCc3ccc(Cl)cc3)C(=O)[C@H]2Cc2ccccc2)C(=O)c2nccs2)C1 (some centres not stated),IC50,[1],110 nM
same,IC50,[2],4800 nM
N=C(N)N1CCCC(C[C@H](NC(=O)CN2C(=O)CN(CCCc3ccccc3)C(=O)[C@H]2Cc2ccc(Cl)cc2)C(=O)c2nccs2)C1 (some centres not stated),IC50,[1],280 nM
same,IC50,[2],17000 nM
N=C(N)NCCC[C@H](NC(=O)CN1C(=O)CN(CCCc2ccccc2)C(=O)[C@H]1Cc1ccccc1)C(N)=O,inhibition,[3],35%
same,inhibition,[4],15%
CC(C)c1ccc(CCCN2CC(=O)N(CC(=O)N[C@@H](CC3CCCN(C(=N)N)C3)C(=O)c3nccs3)[C@H](Cc3ccccc3)C2=O)cc1 (some centres not stated),IC50,[1],370 nM
same,IC50,[2],7000 nM
N=C(N)N1CCC[C@@H](C[C@H](NC(=O)CN2C(=O)CN(CCCc3ccccc3)C(=O)[C@H]2Cc2ccccc2)C(=O)c2nccs2)C1,IC50,[1],170 nM
same,Ki,[5],55 nM
same,IC50,[2],9100 nM
COc1ccc(CCCN2CC(=O)N(CC(=O)N[C@@H](CC3CCCN(C(=N)N)C3)C(=O)c3nccs3)[C@H](Cc3ccccc3)C2=O)cc1 (some centres not stated),IC50,[1],160 nM
same,IC50,[2],14000 nM
N=C(N)NCCC[C@H](NC(=O)CN1C(=O)CN(CCCc2ccccc2)C(=O)[C@H]1Cc1ccccc1)C(=O)c1nccs1,IC50,[1],3400 nM
same,IC50,[2],96 nM
N=C(N)N1CCCC(C[C@H](NC(=O)CN2C(=O)CN(CCCc3ccc(Cl)c(Cl)c3)C(=O)[C@H]2Cc2ccccc2)C(=O)c2nccs2)C1 (some centres not stated),IC50,[1],250 nM
same,IC50,[2],7200 nM
N=C(N)N1CCCC(C[C@H](NC(=O)CN2C(=O)CN(CCCc3ccc([N+](=O)[O-])cc3)C(=O)[C@H]2Cc2ccccc2)C(=O)c2nccs2)C1 (some centres not stated),IC50,[1],210 nM
same,IC50,[2],9100 nM
C[C@@H]1C(=O)N(CCCc2ccccc2)CC(=O)N1CC(=O)N[C@@H](C[C@@H]1CCCN(C(=N)N)C1)C(=O)c1nccs1,IC50,[1],880 nM
same,IC50,[2],340 nM
CCCCN1CC(=O)N(CC(=O)N[C@@H](CC2CCCN(C(=N)N)C2)C(=O)c2nccs2)[C@H](Cc2ccccc2)C1=O (some centres not stated),IC50,[1],340 nM
same,Ki,[5],32 nM
same,IC50,[2],15000 nM
N=C(N)NCCC[C@H](NC(=O)CN1C(=O)CN(CCCc2ccccc2)C(=O)[C@H]1Cc1ccccc1)C(=O)O,inhibition,[3],20%
same,inhibition,[4],20%
N=C(N)N1CCCC(C[C@H](NC(=O)CN2C(=O)CN(CCCc3ccccc3)C(=O)[C@H]2Cc2cccc(Cl)c2)C(=O)c2nccs2)C1 (some centres not stated),IC50,[1],390 nM
same,Ki,[5],20 nM
same,IC50,[2],4800 nM
N=C(N)N1CCCC(C[C@H](NC(=O)CN2C(=O)CN(CCCc3ccccc3)C(=O)[C@H]2Cc2ccccc2)C(=O)N2CCCCC2)C1 (some centres not stated),IC50,[1],6600 nM
same,inhibition,[4],52%
same,Ki,[5],825 nM
N=C(N)N1CCCC(C[C@H](NC(=O)CN2C(=O)CN(CCCc3ccccc3)C(=O)[C@H]2Cc2ccccc2)C(=O)N2CCCC2)C1 (some centres not stated),IC50,[1],660 nM
same,Ki,[5],130 nM
same,IC50,[2],8700 nM
N=C(N)N1CCCC(C[C@H](NC(=O)CN2C(=O)CN(CCc3ccccc3)C(=O)[C@H]2Cc2ccccc2)C(=O)c2nccs2)C1 (some centres not stated),IC50,[1],990 nM
same,IC50,[2],45000 nM
N=C(N)N1CCCC(C[C@H](NC(=O)CN2C(=O)CN(CCCc3ccccc3)C(=O)[C@H]2Cc2ccccc2Cl)C(=O)c2nccs2)C1 (some centres not stated),IC50,[1],18 nM
same,Ki,[5],1.2 nM
same,IC50,[2],9700 nM
N=C(N)N1CCCC(C[C@H](NC(=O)CN2C(=O)CN(CCCc3ccc(O)cc3)C(=O)[C@H]2Cc2ccccc2)C(=O)c2nccs2)C1 (some centres not stated),IC50,[1],240 nM
same,IC50,[2],25000 nM
N=C(N)N1CCCC(C[C@H](NC(=O)CN2C(=O)CN(CCCc3ccccc3)C(=O)[C@H]2Cc2ccccc2)C(=O)c2nc3ccccc3s2)C1 (some centres not stated),IC50,[1],150 nM
same,Ki,[5],80 nM
same,IC50,[2],3700 nM
N=C(N)N1CCCC(C[C@H](NC(=O)CN2C(=O)CN(CCCc3ccccc3)C(=O)[C@H]2C(c2ccccc2)c2ccccc2)C(=O)c2nccs2)C1 (some centres not stated),IC50,[1],350 nM
same,IC50,[2],8500 nM
Cc1ccc(CCCN2CC(=O)N(CC(=O)N[C@@H](CC3CCCN(C(=N)N)C3)C(=O)c3nccs3)[C@H](Cc3ccccc3)C2=O)cc1 (some centres not stated),IC50,[1],210 nM
same,IC50,[2],4100 nM
N=C(N)N1CCCC(C[C@H](NC(=O)CN2C(=O)CN(Cc3ccccc3)C(=O)[C@H]2Cc2ccccc2)C(=O)c2nccs2)C1 (some centres not stated),IC50,[1],1230 nM
same,IC50,[2],21000 nM
N=C(N)N1CCCC(C[C@H](NC(=O)CN2C(=O)CN(Cc3ccccc3)C(=O)[C@@H]2Cc2ccc3ccccc3c2)C(=O)c2nccs2)C1 (some centres not stated),IC50,[1],170 nM
same,Ki,[5],3.5 nM
N=C(N)N1CCCC(C[C@H](NC(=O)CN2C(=O)CN(CCCc3ccccc3)C(=O)[C@H]2Cc2ccc(Cl)c(Cl)c2)C(=O)c2nccs2)C1 (some centres not stated),IC50,[1],80 nM
same,Ki,[5],8 nM
same,IC50,[2],7800 nM
N=C(N)N1CCCC(C[C@H](NC(=O)CN2C(=O)CN(CCCc3ccccc3)C(=O)[C@H]2Cc2ccc3ccccc3c2)C(=O)c2nccs2)C1 (some centres not stated),IC50,[1],160 nM
same,Ki,[5],55 nM
same,IC50,[2],18200 nM
CNC(=O)[C@H](CC1CCCN(C(=N)N)C1)NC(=O)CN1C(=O)CN(CCCc2ccccc2)C(=O)[C@H]1Cc1ccccc1 (some centres not stated),IC50,[1],440 nM
same,Ki,[5],55 nM
same,IC50,[2],2300 nM
